Experiments:
Assay type in all cases: in vivo
[1] = test system: Spodoptera littoralis (Egyptian Cotton Leaf Worm); test: Example B7: Activity against Spodoptera littoralis (Egyptian cotton leaf worm), cotton leaf discs, L1 larvae; conditions: foliar, 72 h, application rate of 200 ppm, 3 days after infestation, in comparison to untreated samples, read-out: control (at least one of mortality, anti-feedant effect, growth inhibition)
Method: Example B7: Activity Against Spodoptera littoralis (Egyptian Cotton Leaf Worm)
Cotton leaf discs were placed onto agar in 24-well microtiter plates and sprayed with aqueous test solutions prepared from 10′000 ppm DMSO stock solutions. After drying the leaf discs were infested with five L1 larvae. The samples were assessed for mortality, anti-feeding effect, and growth inhibition in comparison to untreated samples 3 days after infestation. Control of Spodoptera littoralis by a test sample is given when at least one of the categories mortality, anti-feedant effect, and growth inhibition is higher than the untreated sample.

[2] = test system: Myzus persicae (Green peach aphid); test: Example B4: Activity against Myzus persicae (green peach aphid), feeding/contact activity, sunflower leaf discs; conditions: foliar, 144 h, application rate of 200 ppm, 6 days after infestation
Method: Example B4: Activity against Myzus persicae (Green peach aphid) Feeding/Contact activity Sunflower leaf discs were placed onto agar in a 24-well microtiter plate and sprayed with aqueous test solutions prepared from 10′000 ppm DMSO stock solutions. After drying, the leaf discs were infested with an aphid population of mixed ages. The samples were assessed for mortality 6 days after infestation.

[3] = test system: Chilo suppressalis (Striped Rice Stemborer); test: Example B1: Activity against Chilo suppressalis (striped rice stemborer), artificial diet, L2 larvae; conditions: 144 h, application rate of 200 ppm, 6 days after infestation, in comparison to untreated samples, read-out: control (at least one of mortality, anti-feedant effect, growth inhibition)
Method: Example B1: Activity Against Chilo suppressalis (Striped Rice Stemborer)
24-well microtiter plates with artificial diet were treated with aqueous test solutions prepared from 10′000 ppm DMSO stock solutions by pipetting. After drying, the plates were infested with L2 larvae (6-8 per well). The samples were assessed for mortality, anti-feeding effect, and growth inhibition in comparison to untreated samples 6 days after infestation. Control of Chilo suppressalis by a test sample is given when at least one of the categories mortality, anti-feedant effect, and growth inhibition is higher than the untreated sample.

[4] = test system: Plutella xylostella (Diamond Back Moth); test: Example B6: Activity against Plutella xylostella (diamond back moth), artificial diet, eggs; conditions: 192 h, application rate of 200 ppm, 8 days after infestation, in comparison to untreated samples, read-out: effect in at least one of the two categories (mortality or growth inhibition)
Method: Example B6: Activity Against Plutella xylostella (Diamond Back Moth)
24-well microtiter plates with artificial diet were treated with aqueous test solutions prepared from 10′000 ppm DMSO stock solutions by pipetting. After drying, Plutella eggs were pipetted through a plastic stencil onto a gel blotting paper and the plate was closed with it. The samples were assessed for mortality and growth inhibition in comparison to untreated samples 8 days after infestation. The following compounds gave an effect of at least 80% in at least one of the two categories (mortality or growth inhibition) at an application rate of 200 ppm: P.1, P.2, P.3, P.4, P.5, P.6, P.7, P.8, P.9, P.10, P.11, P.12.

[5] = test system: Diabrotica balteata (Corn Root Worm); test: Example B2: Activity against Diabrotica balteata (corn root worm), maize sprouts, L2 larvae; conditions: 96 h, application rate of 200 ppm, 4 days after infestation, in comparison to untreated samples, read-out: effect in at least one of the two categories (mortality or growth inhibition)
Method: Example B2: Activity Against Diabrotica balteata (Corn Root Worm)
Maize sprouts placed onto an agar layer in 24-well microtiter plates were treated with aqueous test solutions prepared from 10′000 ppm DMSO stock solutions by spraying. After drying, the plates were infested with L2 larvae (6 to 10 per well). The samples were assessed for mortality and growth inhibition in comparison to untreated samples 4 days after infestation.

[6] = test system: Euschistus heros (Neotropical Brown Stink Bug); test: Example B3: Activity against Euschistus heros (neotropical brown stink bug), soybean leaves, N2 nymphs; conditions: 120 h, application rate of 200 ppm, 5 days after infestation, in comparison to untreated samples, read-out: effect in at least one of the two categories (mortality or growth inhibition)
Method: Example B3: Activity Against Euschistus heros (Neotropical Brown Stink Bug)
Soybean leaves on agar in 24-well microtiter plates were sprayed with aqueous test solutions prepared from 10′000 ppm DMSO stock solutions. After drying the leaves were infested with N2 nymphs. The samples were assessed for mortality and growth inhibition in comparison to untreated samples 5 days after infestation.

[7] = test system: Myzus persicae (Green peach aphid); test: Example B5: Activity against Myzus persicae (green peach aphid), systemic activity, pea seedlings; conditions: 144 h, test rate of 24 ppm, 6 days after placing seedlings into test solutions
Method: Example B5: Activity Against Myzus persicae (Green Peach Aphid) Systemic Activity
Roots of pea seedlings infested with an aphid population of mixed ages were placed directly into aqueous test solutions prepared from 10′000 DMSO stock solutions. The samples were assessed for mortality 6 days after placing seedlings into test solutions.

CCS(=O)(=O)c1cc(C2(C#N)CC2)cnc1N1CCc2nc(OCC(F)(F)C(F)F)ccc2C1=O [P.10, 1-[5-ethylsulfonyl-6-[5-oxo-2-(2,2,3,3-tetrafluoropropoxy)-7,8-dihydro-1,6-naphthyridin-6-yl]-3-pyridyl] cyclopropane-carbonitrile]
≥ 80%: control at 200 ppm [1] | mortality at 200 ppm [2] | percent control (mortality, anti-feedant effect or growth inhibition) at 200 ppm [3] | percent effect (mortality or growth inhibition) at 200 ppm [4] | percent effect (mortality or growth inhibition) at 200 ppm [5]

CCS(=O)(=O)c1cc(C2(C#N)CC2)cnc1N1CCc2cc(C(F)(F)F)ccc2C1=O [P.2, 1-[5-ethylsulfonyl-6-[1-oxo-6-(trifluoromethyl)-3,4-dihydroisoquinolin-2-yl]-3-pyridyl]cyclopropane-carbonitrile]
≥ 80%: mortality at 200 ppm [2] | percent effect (mortality or growth inhibition) at 200 ppm [6] | percent control (mortality, anti-feedant effect or growth inhibition) at 200 ppm [3] | percent effect (mortality or growth inhibition) at 200 ppm [4] | percent effect (mortality or growth inhibition) at 200 ppm [5]

CCS(=O)(=O)c1c(N2CCc3nc(C(F)(F)F)ccc3C2=O)nc2cc(C(F)(F)F)ccn12 [P.1, 6-[3-ethylsulfonyl-7-(trifluoromethyl)imidazo[1,2-a]pyridin-2-yl]-2-(trifluoromethyl)-7,8-dihydro-1,6-naphthyridin-5-one]
≥ 80%: control at 200 ppm [1] | mortality at 200 ppm [2] | percent control (mortality, anti-feedant effect or growth inhibition) at 200 ppm [3] | percent effect (mortality or growth inhibition) at 200 ppm [4] | percent effect (mortality or growth inhibition) at 200 ppm [5]

CCS(=O)(=O)c1cc(C2(C#N)CC2)cnc1N1CCc2nc(OCC(F)(F)C(F)(F)F)ccc2C1=O [P.12, 1-[5-ethylsulfonyl-6-[5-oxo-2-(2,2,3,3,3-pentafluoropropoxy)-7,8-dihydro-1,6-naphthyridin-6-yl]-3-pyridyl]cyclopropane-carbonitrile]
≥ 80%: control at 200 ppm [1] | mortality at 200 ppm [2] | percent control (mortality, anti-feedant effect or growth inhibition) at 200 ppm [3] | percent effect (mortality or growth inhibition) at 200 ppm [4] | percent effect (mortality or growth inhibition) at 200 ppm [5]

CCS(=O)(=O)c1cc(C2(C#N)CC2)cnc1N1CCc2cc(OC(F)(F)F)ccc2C1=O [P.4, 1-[5-ethylsulfonyl-6-[1-oxo-6-(trifluoromethoxy)-3,4-dihydroisoquinolin-2-yl]-3-pyridyl] cyclopropane-carbonitrile]
≥ 80%: control at 200 ppm [1] | mortality at 200 ppm [2] | percent effect (mortality or growth inhibition) at 200 ppm [6] | percent control (mortality, anti-feedant effect or growth inhibition) at 200 ppm [3] | percent effect (mortality or growth inhibition) at 200 ppm [4] | percent effect (mortality or growth inhibition) at 200 ppm [5]

CCS(=O)(=O)c1cc(C2(C#N)CC2)cnc1N1CCc2c(ccc3c2OC(F)(F)O3)C1=O [P.6, 1-[6-(2,2-difluoro-6-oxo-8,9-dihydro-[1,3]dioxolo[4,5-f]isoquinolin-7-yl)-5-ethylsulfonyl-3-pyridyl]cyclopropane-carbonitrile]
≥ 80%: control at 200 ppm [1] | mortality at 200 ppm [2] | percent effect (mortality or growth inhibition) at 200 ppm [6] | percent control (mortality, anti-feedant effect or growth inhibition) at 200 ppm [3] | percent effect (mortality or growth inhibition) at 200 ppm [4] | percent effect (mortality or growth inhibition) at 200 ppm [5]

CCS(=O)(=O)c1cc(C2(C#N)CC2)cnc1N1CCc2nc(OCC(Cl)(Cl)Cl)ccc2C1=O [P.11, 1-[5-ethylsulfonyl-6-[5-oxo-2-(2,2,2-trichloroethoxy)-7,8-dihydro-1,6-naphthyridin-6-yl]-3-pyridyl]cyclopropane-carbonitrile]
≥ 80%: control at 200 ppm [1] | percent control (mortality, anti-feedant effect or growth inhibition) at 200 ppm [3] | percent effect (mortality or growth inhibition) at 200 ppm [4]

CCS(=O)(=O)c1cc(C2(C#N)CC2)cnc1N1CCc2nc(Cl)ccc2C1=O [P.8, 1-[6-(2-chloro-5-oxo-7,8-dihydro-1,6-naphthyridin-6-yl)-5-ethylsulfonyl-3-pyridyl]cyclopropane-carbonitrile]
≥ 80%: control at 200 ppm [1] | percent effect (mortality or growth inhibition) at 200 ppm [4] | mortality at 24 ppm [7]

CCS(=O)(=O)c1cc(C2(C#N)CC2)cnc1N1CCc2nc(C(F)(F)C(F)(F)F)ccc2C1=O [P.5, 1-[5-ethylsulfonyl-6-[5-oxo-2-(1,1,2,2,2-pentafluoroethyl)-7,8-dihydro-1,6-naphthyridin-6-yl]-3-pyridyl] cyclopropane-carbonitrile]
≥ 80%: control at 200 ppm [1] | percent effect (mortality or growth inhibition) at 200 ppm [6] | percent control (mortality, anti-feedant effect or growth inhibition) at 200 ppm [3] | percent effect (mortality or growth inhibition) at 200 ppm [4] | percent effect (mortality or growth inhibition) at 200 ppm [5]

CCS(=O)(=O)c1cc(C2(C#N)CC2)cnc1N1CCc2nc(OCC(Cl)(Cl)C(F)(F)F)ccc2C1=O [P.13, 1-[6-[2-(2,2-dichloro-3,3,3-trifluoro-propoxy)-5-oxo-7,8-dihydro-1,6-naphthyridin-6-yl]-5-ethylsulfonyl-3-pyridyl]cyclopropane-carbonitrile]
≥ 80%: control at 200 ppm [1] | percent control (mortality, anti-feedant effect or growth inhibition) at 200 ppm [3]

CCS(=O)(=O)c1cc(C2(C#N)CC2)cnc1N1CCc2nc(OC3CC3)ccc2C1=O [P.7, 1-[6-[2-(cyclopropoxy)-5-oxo-7,8-dihydro-1,6-naphthyridin-6-yl]-5-ethylsulfonyl-3-pyridyl]cyclopropane-carbonitrile]
≥ 80%: control at 200 ppm [1] | mortality at 200 ppm [2] | percent control (mortality, anti-feedant effect or growth inhibition) at 200 ppm [3] | percent effect (mortality or growth inhibition) at 200 ppm [4] | percent effect (mortality or growth inhibition) at 200 ppm [5] | mortality at 24 ppm [7]

CCS(=O)(=O)c1cc(C2(C#N)CC2)cnc1N1CCc2nc(OCC(F)(F)Cl)ccc2C1=O [P.9, 1-[6-[2-(2-chloro-2,2-difluoro-ethoxy)-5-oxo-7,8-dihydro-1,6-naphthyridin-6-yl]-5-ethylsulfonyl-3-pyridyl]cyclopropane-carbonitrile]
≥ 80%: control at 200 ppm [1] | mortality at 200 ppm [2] | percent effect (mortality or growth inhibition) at 200 ppm [6] | percent control (mortality, anti-feedant effect or growth inhibition) at 200 ppm [3] | percent effect (mortality or growth inhibition) at 200 ppm [4] | percent effect (mortality or growth inhibition) at 200 ppm [5]

From patent US20260223853A1, “PESTICIDALLY ACTIVE HETEROCYCLIC DERIVATIVES WITH SULFUR CONTAINING SUBSTITUENTS” (SYNGENTA CROP PROTECTION AG, priority 2023, published 2026)
